Laboratory results: patent US7445765B2, “Radiopharmaceutical for diagnostic imaging containing a technetium-99m nitride heterocomplex” (Nihon Medi-Physics Co., Ltd., priority 2000, dated 2008)

Assay: Biodistribution of the 99mTc(N) heterocomplexes in rats (organ uptake, heart accumulation, heart/lung and heart/liver ratios)
Assay type: in vivo, female Sprague-Dawley rats
Details: rats
Method: The biodistribution was measured by using female Sprague-Dawley rats (SD rats) weighing 200 g to 250 g. Each of the ^99mTc(N) heterocomplexes purified in the manner described above was diluted with phosphate buffer (0.1 M, pH=7.4) to obtain a final solution having an ethanol content of 10%. After the SD rats were anesthetized with an intramuscular injection of a mixture of ketamine (80 mg/kg) and xilazine (19 mg/kg), the jugular vein of each rat was surgically exposed and 100 μL (300 to 370 kBq) of the solution containing each ^99mTc(N) heterocomplexes prepared in the manner described above was injected in the jugular vein. The rats (n=3) were sacrificed by cervical dislocation at different times post injection. The blood was withdrawn from the heart through a syringe and counted. It was assumed that the whole blood content was 6.5% of the total body weight. The organs were excised from the rats, washed with physiological saline, weighed, and counted in a NaI well counter.
For comparison, Tables 19 and 20 show the results, obtained in the same manner as above, of measuring the biodistribution of (^99mTc) (MIBI) and (^99mTc) (Tf) which have been used as pharmaceuticals for diagnostic imaging for blood flow in myocardium.
Tables 21 to 23 show data showing the variations with time of heart accumulation, heart/lung ratios and heart/liver ratios for the ^99mTc(N) heterocomplexes of the present invention.

Structure (SMILES): [99Tc].[C-]#[N+]CC(C)(C)OC.[C-]#[N+]CC(C)(C)OC.[C-]#[N+]CC(C)(C)OC.[C-]#[N+]CC(C)(C)OC.[C-]#[N+]CC(C)(C)OC.[C-]#[N+]CC(C)(C)OC [(^99mTc) (MIBI), reference compound]
- Biodistribution, Adrenal glands (0 min): 2.80 ± 0.17 % ID/g
- Biodistribution, Blood (0 min): 0.34 ± 0.07 % ID/g
- Biodistribution, Brain (0 min): 0.26 ± 0.01 % ID/g
- Biodistribution, Heart (0 min): 3.56 ± 0.22 % ID/g
- Biodistribution, Intestine (0 min): 3.55 ± 0.37 % ID/g
- Biodistribution, Kidneys (0 min): 9.23 ± 0.62 % ID/g
- Biodistribution, Liver (0 min): 1.36 ± 0.12 % ID/g
- Biodistribution, Lungs (0 min): 1.65 ± 0.08 % ID/g
- Biodistribution, Muscle (0 min): 0.24 ± 0.04 % ID/g
- Biodistribution, Spleen (0 min): 2.65 ± 0.26 % ID/g
- Biodistribution, Submaxillary glands (0 min): 1.43 ± 0.41 % ID/g
- Biodistribution, Adrenal glands (2 min): 1.60 ± 0.01 % ID/g
- Biodistribution, Blood (2 min): 0.11 ± 0.01 % ID/g
- Biodistribution, Brain (2 min): 0.04 ± 0.01 % ID/g
- Biodistribution, Heart (2 min): 3.25 ± 0.17 % ID/g
- Biodistribution, Intestine (2 min): 3.71 ± 0.01 % ID/g
- Biodistribution, Kidneys (2 min): 10.12 ± 0.15 % ID/g
- Biodistribution, Liver (2 min): 1.88 ± 0.08 % ID/g
- Biodistribution, Lungs (2 min): 1.18 ± 0.13 % ID/g
- Biodistribution, Muscle (2 min): 0.14 ± 0.00 % ID/g
- Biodistribution, Spleen (2 min): 2.76 ± 0.66 % ID/g
- Biodistribution, Submaxillary glands (2 min): 1.01 ± 0.23 % ID/g
- Biodistribution, Adrenal glands (10 min): 3.28 ± 0.39 % ID/g
- Biodistribution, Blood (10 min): 0.07 ± 0.01 % ID/g
- Biodistribution, Brain (10 min): 0.05 ± 0.01 % ID/g
- Biodistribution, Heart (10 min): 3.37 ± 0.45 % ID/g
- Biodistribution, Intestine (10 min): 5.40 ± 0.33 % ID/g
- Biodistribution, Kidneys (10 min): 11.45 ± 1.62 % ID/g
- Biodistribution, Liver (10 min): 2.21 ± 0.27 % ID/g
- Biodistribution, Lungs (10 min): 1.36 ± 0.31 % ID/g
- Biodistribution, Muscle (10 min): 0.18 ± 0.01 % ID/g
- Biodistribution, Spleen (10 min): 3.16 ± 0.62 % ID/g
- Biodistribution, Submaxillary glands (10 min): 1.12 ± 0.12 % ID/g
- Biodistribution, Adrenal glands (20 min): 3.05 ± 0.04 % ID/g
- Biodistribution, Blood (20 min): 0.05 ± 0.01 % ID/g
- Biodistribution, Brain (20 min): 0.04 ± 0.01 % ID/g
- Biodistribution, Heart (20 min): 3.16 ± 0.22 % ID/g
- Biodistribution, Intestine (20 min): 4.90 ± 0.23 % ID/g
- Biodistribution, Kidneys (20 min): 8.14 ± 1.30 % ID/g
- Biodistribution, Liver (20 min): 1.98 ± 0.60 % ID/g
- Biodistribution, Lungs (20 min): 0.99 ± 0.11 % ID/g
- Biodistribution, Muscle (20 min): 0.15 ± 0.05 % ID/g
- Biodistribution, Spleen (20 min): 2.11 ± 0.18 % ID/g
- Biodistribution, Submaxillary glands (20 min): 1.07 ± 0.04 % ID/g
- Biodistribution, Adrenal glands (30 min): 3.49 ± 0.67 % ID/g
- Biodistribution, Blood (30 min): 0.05 ± 0.01 % ID/g
- Biodistribution, Brain (30 min): 0.04 ± 0.02 % ID/g
- Biodistribution, Heart (30 min): 3.70 ± 0.04 % ID/g
- Biodistribution, Intestine (30 min): 5.42 ± 0.05 % ID/g
- Biodistribution, Kidneys (30 min): 6.46 ± 0.11 % ID/g
- Biodistribution, Liver (30 min): 1.37 ± 0.22 % ID/g
- Biodistribution, Lungs (30 min): 0.72 ± 0.01 % ID/g
- Biodistribution, Muscle (30 min): 0.17 ± 0.05 % ID/g
- Biodistribution, Spleen (30 min): 2.89 ± 0.29 % ID/g
- Biodistribution, Submaxillary glands (30 min): 1.08 ± 0.09 % ID/g
- Biodistribution, Adrenal glands (60 min): 3.50 ± 0.60 % ID/g
- Biodistribution, Blood (60 min): 0.03 ± 0.00 % ID/g
- Biodistribution, Brain (60 min): 0.04 ± 0.00 % ID/g
- Biodistribution, Heart (60 min): 3.18 ± 0.17 % ID/g
- Biodistribution, Intestine (60 min): 6.49 ± 1.43 % ID/g
- Biodistribution, Kidneys (60 min): 4.42 ± 0.11 % ID/g
- Biodistribution, Liver (60 min): 1.57 ± 0.11 % ID/g
- Biodistribution, Lungs (60 min): 0.47 ± 0.24 % ID/g
- Biodistribution, Muscle (60 min): 0.18 ± 0.01 % ID/g
- Biodistribution, Spleen (60 min): 1.88 ± 0.15 % ID/g
- Biodistribution, Submaxillary glands (60 min): 1.17 ± 0.05 % ID/g
- Biodistribution, Adrenal glands (120 min): 2.43 ± 0.13 % ID/g
- Biodistribution, Blood (120 min): 0.02 ± 0.00 % ID/g
- Biodistribution, Brain (120 min): 0.03 ± 0.00 % ID/g
- Biodistribution, Heart (120 min): 3.04 ± 0.14 % ID/g
- Biodistribution, Intestine (120 min): 4.15 ± 1.02 % ID/g
- Biodistribution, Kidneys (120 min): 3.49 ± 0.05 % ID/g
- Biodistribution, Liver (120 min): 1.02 ± 0.23 % ID/g
- Biodistribution, Lungs (120 min): 0.47 ± 0.06 % ID/g
- Biodistribution, Muscle (120 min): 0.28 ± 0.05 % ID/g
- Biodistribution, Spleen (120 min): 1.23 ± 0.18 % ID/g
- Biodistribution, Submaxillary glands (120 min): 1.19 ± 0.05 % ID/g
